Experiments:
[1] = Dynamic Vapor Sorption (DVS), moisture sorption/desorption isotherms at 25° C.; assay type: physicochemical
Protocol: Moisture sorption/desorption isotherms were recorded on a SPS11-10μ from Projekt Messtechnik (Ulm, Germany). One cycle was run at 25° C., in which the sample was first stepwise decreased to 0% Room humidity (RH) and then the relative humidity was stepwise increased from 0 to 95% and the weight of the sample was measured. Typical total measurement times for both cycles were about 20 to 30 hours.

[2] = Chiral stability: solid stored at 40° C. and 75% RH, enantiomeric excess by chiral HPLC; conditions: for Enantiomeric excess: storage condition (B): solid, 40° C. and 75% RH, 4 weeks; for chemical / chiral stability (in words): elevated temperature and humidity, storage 40° C. and 75% RH, sodium salt dihydrate
Protocol: Enantiomeric excess was determined by chiral HPLC on a HPLC system containing a Quaternary HPLC pump (e.g. HP 1100), an auto sampler, an UV absorbance detector (e.g. DAD Agilent Technologies or other adequate HPLC-System) and a computer data acquisition system with suitable software (e.g. Dionex-Chromeleon). A Chirobiotic R, Supelco (Astec) (4.6×250 mm; 5 μm) column was used as stationary phase and a solution of 800 mL water, 1200 mL acetonitrile and 1.0 g ammoniumacetate was used as mobile phase. The flow rate was set to a value of 1.5 mL/minute and the oven temperature was set to 45° C. Detection was performed by absorbance of the compounds at 236 nm (UV) (bandwidth: 8 nm) and reference wavelength was set to 450 nm (bandwidth: 50 nm). Typical total run times were in the range of about 15 minutes. For sample preparation 50 mg of the substance were accurately weighed into a 10 mL volumetric flask and dissolved and diluted to volume with solvent (acetonitrile/water 50:50). For the HPLC analysis 5 μL of the sample were injected into the system.
Gradient used: Isograt (15 minutes 100% mobile phase A)

Enantiomeric excess [2] [%] | Enantiomeric excess ([2]; listed as (R)-3-[6-amino-pyridin-3-yl]-2-(1-cyclohexyl-1H-imidazol-4-yl)-propionic acid) [%] | chemical / chiral stability (in words) ([2]; listed as sodium salt of (R)-3-[6-amino-pyridin-3-yl]-2-(1-cyclohexyl-1H-imidazol-4-yl)-pr) | chemical / chiral stability (in words) [2] | Compound | hygroscopicity, absorption or adsorption of water from the surrounding environment (in words) [1] | sorption and desorption isotherms (in words) ([1]; DVS 25° C., between 30% relative humidity and 0.4% relative humidity)
 |  |  |  | Nc1ccc(CC(C(=O)O)c2cn(C3CCCCC3)cn2)cn1 (stereo not shown) [3-[6-amino-pyridin-3-yl]-2-(1-cyclohexyl-1H-imidazol-4-yl)-propionic acid] | hygroscopic | 
91.6 | 91.6 |  |  | Nc1ccc(C[C@@H](C(=O)O)c2cn(C3CCCCC3)cn2)cn1 [Example 1, (R)-3-[6-amino-pyridin-3-yl]-2-(1-cyclohexyl-1H-imidazol-4-yl)-propionic acid] |  | 
 |  | chemically stable | remain stable | Nc1ccc(C[C@@H](C(=O)[O-])c2cn(C3CCCCC3)cn2)cn1.[Na+] [Example 3, (R)-3-[6-amino-pyridin-3-yl]-2-(1-cyclohexyl-1H-imidazol-4-yl)-propionic acid sodium salt dihydrate] | favorable reduced absorption or adsorption of water molecules | almost the same (low water uptake or water desorption)

Source: US9102657B2, “Sodium salt of (R)-3-[6-amino-pyridin-3-yl]-2-(1-cyclohexyl-1H-imidazol-4-yl)-propionic acid” (Sanofi, priority 2011, dated 2015)
